Measured values as given in publication PMC8196973, “Synthesis, Molecular Docking Analysis and Biological Evaluations of Saccharide-Modified Thiadiazole Sulfonamide Derivatives” (International Journal of Molecular Sciences, 2021).

Legend:
[1] = system: human colon cancer HT-29 cells; test: CCK-8 cell viability assay, HT-29; type: cell-based; details: HT-29, normoxic and hypoxic, 48 h, Figure 5
Experimental: (§1) The MDA-MB-231, HT-29 and MG-63 cell lines were provided by KeyGEN BioTECH Ltd (Nanjing, Jiangsu, China). The cells were digested and counted to prepare a cell suspension of 5.0 × 10^4 cells/mL, and then 100 μL of cell suspension was added to each well of the 96-well cell culture plate. The plates were placed in a 37 °C, 5% CO2 incubator (Corning Incorporated, Corning, New York, USA) for 24 h. The drug was diluted with the culture medium to the required concentration, ed100 μL of the corresponding drug-containing medium was added to each well, and a negative control group was set up at the same time. The 96-well cell culture plates were placed into a normoxic incubator (37 °C, 5% CO2) and hypoxic incubator (37 °C, 5% CO2, 0.5% O2, 94.5% N2) for 48 h. Finally, the 96-well plate was stained with CCK-8 and the OD value determined (λ = 450 nm).

[2] = system: breast adenocarcinoma MDA-MB-231 cells; test: CCK-8 cell viability assay, MDA-MB-231; type: cell-based, human; details: MDA-MB-231, normoxic and hypoxic, 48 h, Figure 5
Experimental: as §1

[3] = system: human osteosarcoma MG-63; test: CCK-8 cell viability assay, MG-63; type: cell-based; details: hypoxic conditions
Experimental: Then, considering the high inhibitory activity of 14a on the two isoforms of CA IX and XII, we evaluated the inhibitory activity of 14a on human osteosarcoma MG-63 featuring high expression of CA IX and XII.
as §1

[4] = target: hCA II (Homo sapiens, UniProt P00918); test: hCA II enzyme inhibition assay (4-NPA hydrolysis)
Experimental: (§4) Carbonic anhydrase can catalyze the hydrolysis of 4-nitrophenyl acetate (4-NPA). […] The experimental buffer consisted of 15 mmol/L 4-(2-hydroxyethyl)-1-piperazineethanesulfonic acid (HEPES) (pH = 7.40), 0.01% tetraethylene glycol monododecyl ether (Brij), and 100 mmol/L NaCl. […] Then, 18 μL of enzyme solution was transferred into 384-well plates in duplicate. Stock solutions of the inhibitors (10.0 mmol/L) were prepared using DMSO as solvent, and then diluted 1:3 with DMSO. […] Then 2.00 μL of each inhibitor was added to each well. All compounds were allowed to incubate with the enzyme for 15 min at 25 °C to form the Enzyme-Inhibitor (E-I) complex. After that, substrate 4-NPA (1.00 mmol/L, 20.00 μL, Sigma-Aldrich, St. Louis, MI, USA) was added into the E-I complex solution and incubated for 60, 90, 90 min at 25 °C, respectively.

[5] = target: hCA IX (Homo sapiens, UniProt Q16790); test: hCA IX enzyme inhibition assay (4-NPA hydrolysis)
Experimental: as §4

[6] = target: hCA XII (Homo sapiens, UniProt O43570); test: hCA XII enzyme inhibition assay (4-NPA hydrolysis)
Experimental: as §4

[7] = system: MDA-MB-231; test: Extracellular pH measurement, MDA-MB-231; type: cell-based, human; details: MDA-MB-231, 0.1 and 1 mM, normoxic and hypoxic, Figure 7
Experimental: (§2) The high expression of CA IX plays an important role in the maintenance of the tumor cell microenvironment, and inhibiting its activity might have a potential impact on the pH of the tumor microenvironment. To evaluate the effect of compounds on the pH of the microenvironment, the pH values under normoxic and hypoxic conditions were determined in the presence of compounds 14b, 14h, and 14p. […] In addition, this improvement in pH was dose-dependent.
(§3) The measurement of the change of extracellular pH referred to the reported literature. In brief, cancer cells were incubated for 12 h. After removing the medium, fresh medium was added to the plates and then incubated for 48 h under hypoxia or normoxia. The pH of the medium was measured immediately. The tested compounds were dissolved in DMSO and diluted with culture medium to the desired concentration. After the addition of tested compounds, the same procedure was repeated.

[8] = system: HT-29; test: Extracellular pH measurement, HT-29; type: cell-based, human; details: HT-29, 0.1 and 1 mM, normoxic and hypoxic, Figure 7
Experimental: as §2, §3

Sequence of hCA XII (O43570 25-354): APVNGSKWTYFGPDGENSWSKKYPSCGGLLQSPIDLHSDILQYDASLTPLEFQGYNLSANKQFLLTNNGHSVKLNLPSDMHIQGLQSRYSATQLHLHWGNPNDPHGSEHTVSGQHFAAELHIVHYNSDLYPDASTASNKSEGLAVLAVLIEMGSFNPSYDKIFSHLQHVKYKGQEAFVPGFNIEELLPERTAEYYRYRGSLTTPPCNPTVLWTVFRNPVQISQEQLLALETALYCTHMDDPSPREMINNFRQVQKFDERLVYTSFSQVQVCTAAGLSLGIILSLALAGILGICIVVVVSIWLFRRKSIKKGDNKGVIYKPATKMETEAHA

| IC50 [4] [µM] | IC50 [5] [µM] | IC50 [6] [µM] | Structure (SMILES) | inhibitory activity on cell viability compared with AZM [1] | inhibitory activity on cell viability compared with AZM [2] | effect on MG-63 viability compared with AZM [3] | reduction of viability of MG-63 cells ([3]; 800 μM, 48 h) | effect on extracellular (tumor) pH [7] | effect on extracellular (tumor) pH [8] |
| --- | --- | --- | --- | --- | --- | --- | --- | --- | --- |
| 0.141 ± 0.0129 | 0.029 ± 0.0042 | 0.141 ± 0.0055 | NS(=O)(=O)c1nnc(NC(=O)c2ccc(NC(=O)CCCC(=O)N[C@@H]3O[C@H](CO)[C@@H](O)[C@H](O)[C@H]3O)cc2)s1 [Compound 14a, N^1-(4-((5-Sulfamoyl-1,3,4-thiadiazol-2-yl)carbamoyl)phenyl)-N^5-((2R,3R,4S,5S,6R)-3,4,5-trihydroxy-6-(hydroxymethyl)tetrahydro-2H-pyran-2-yl)glutaramide] | better than those of the positive control drug AZM | better than those of the positive control drug AZM | significantly better than that of the positive control AZM | approximately 30% | – | – |
| 0.0803 ± 0.0115 | 0.029 ± 0.0015 | 0.056 ± 0.0085 | NS(=O)(=O)c1nnc(NC(=O)c2cccc(NC(=O)CCCC(=O)N[C@@H]3O[C@H](CO)[C@@H](O)[C@H](O)[C@H]3O)c2)s1 [Compound 14b, N^1-(3-((5-Sulfamoyl-1,3,4-thiadiazol-2-yl)carbamoyl)phenyl)-N^5-((2R,3R,4S,5S,6R)-3,4,5-trihydroxy-6-(hydroxymethyl)tetrahydro-2H-pyran-2-yl)glutaramide] | better than those of the positive control drug AZM | better than those of the positive control drug AZM | – | – | increased tumor pH to varying degrees | increased tumor pH to varying degrees |
| 0.272 ± 0.009 | 0.0688 ± 0.0102 | 0.0849 ± 0.0076 | COc1cc(C(=O)Nc2nnc(S(N)(=O)=O)s2)ccc1NC(=O)CCCC(=O)N[C@@H]1O[C@H](CO)[C@@H](O)[C@H](O)[C@H]1O [Compound 14h, N^1-(2-Methoxy-4-((5-sulfamoyl-1,3,4-thiadiazol-2-yl)carbamoyl)phenyl)-N^5-((2R,3R,4S,5S,6R)-3,4,5-trihydroxy-6-(hydroxymethyl)tetrahydro-2H-pyran-2-yl)glutaramide] | better than those of the positive control drug AZM | better than those of the positive control drug AZM | – | – | increased tumor pH to varying degrees | increased tumor pH to varying degrees |
| 0.332 ± 0.0168 | 0.0479 ± 0.0071 | 0.0423 ± 0.0094 | COc1cc(C(=O)Nc2nnc(S(N)(=O)=O)s2)ccc1NC(=O)CCC(=O)N[C@@H]1O[C@H](CO)[C@@H](O)[C@H](O)[C@H]1O [Compound 14p, N^1-(2-Methoxy-4-((5-sulfamoyl-1,3,4-thiadiazol-2-yl)carbamoyl)phenyl)-N^4-((2R,3R,4S,5S,6R)-3,4,5-trihydroxy-6-(hydroxymethyl)tetrahydro-2H-pyran-2-yl)succinimide] | better than those of the positive control drug AZM | better than those of the positive control drug AZM | – | – | increased tumor pH to varying degrees | increased tumor pH to varying degrees |
